In general, IC50 refers to the concentration at which inhibition is half-maximal.

The values that follow come from patent US9809574B2, “Isoindoline or isoquinoline compounds, a process for their preparation and pharmaceutical compositions containing them” (LES LABORATOIRES SERVIER, priority 2013, dated 2017).

Assay [1] relates to RS4; 11 leukaemia cell line. The assay can be described thus: In vitro cytotoxicity, Microculture Tetrazolium Assay (MTT). The assay is classed as cell-based. The conditions noted are these: Homo sapiens, 11 cells exposed for 48 hours. How it is done: The cytotoxicity studies were carried out on the RS4; 11 leukaemia cell line and on H146 small Cell Lung Carcinoma cell line. The cells are distributed onto microplates and exposed to the test compounds for 48 hours. The cell viability is then quantified by a colorimetric assay, the Microculture Tetrazolium Assay (Cancer Res., 1987, 47, 939-942).

Assay [2] addresses Bcl-2 protein (histag-Bcl-2, UniProtKB P10415) (Homo sapiens (Human), UniProt P10415). The assay can be described thus: Inhibition of Bcl-2 by the fluorescence polarisation technique. It counts as binding. The conditions noted are these: fluorescence polarisation test; incubation for 2 hours; read-out: IC50 (nM) Bcl-2 FP. The text has this: For partial inhibitors, the percentage fluorescence polarisation inhibition for a given concentration of the test compound is indicated.
(In general: Fluorescence polarisation rises when a labelled molecule tumbles more slowly, as on binding a larger partner.)

Sequence of Bcl-2 protein (P10415 whole entry): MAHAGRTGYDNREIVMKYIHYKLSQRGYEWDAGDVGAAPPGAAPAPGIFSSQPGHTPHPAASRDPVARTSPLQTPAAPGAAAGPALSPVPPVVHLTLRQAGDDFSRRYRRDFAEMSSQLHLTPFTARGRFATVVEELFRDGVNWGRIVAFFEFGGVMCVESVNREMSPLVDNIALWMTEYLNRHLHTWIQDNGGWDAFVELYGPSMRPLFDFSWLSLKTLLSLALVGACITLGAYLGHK

Regarding `C[C@@H]1Cc2ccccc2CN1C(=O)c1cc2c(cc1-c1cc(C(=O)N(C)c3ccc(O)cc3)c3n1CCCC3)CCN(C(=O)Cc1ccc(C#N)cc1)C2` [Example 53, 3-{2-[2-(4-Cyanophenyl)acetyl]-7-[(3R)-3-methyl-1,2,3,4-tetrahydroisoquinoline-2-carbonyl]-1,2,3,4-tetrahydroisoquinolin-6-yl}-N-(4-hydroxyphenyl)-N-methyl-5,6,7,8-tetrahydroindolizine-1-carboxamide], the IC50 in assay [1] worked out at 5 nM; in assay [2], 2.4 nM.
For the molecule `Cc1ccc(CC(=O)N2CCc3cc(-c4cc(C(=O)N(C)c5ccc(O)cc5)c5n4CCCC5)c(C(=O)N4Cc5ccccc5C[C@H]4C)cc3C2)cc1` [Example 54, N-(4-Hydroxyphenyl)-N-methyl-3-{7-[(3R)-3-methyl-1,2,3,4-tetrahydroisoquinoline-2-carbonyl]-2-[2-(4-methylphenyl)acetyl]-1,2,3,4-tetrahydroisoquinolin-6-yl}-5,6,7,8-tetrahydroindolizine-1-carboxamide], the IC50 was 2.4 nM in assay [1] and 4 nM in assay [2].
For `CNC(=O)N1Cc2cc(C(=O)N3Cc4ccccc4C[C@H]3C)c(-c3cc(C(=O)N(C)c4ccc(O)cc4)c4n3CCCC4)cc2C1` [Example 55, 5-{1-[(4-Hydroxyphenyl)(methyl)carbamoyl]-5,6,7,8-tetrahydroindolizin-3-yl}-N-methyl-6-[(3R)-3-methyl-1,2,3,4-tetrahydroisoquinoline-2-carbonyl]-2,3-dihydro-1H-isoindole-2-carboxamide], the IC50 in assay [1] came to 372 nM; in assay [2] it was 16 nM.
Take `CCS(=O)(=O)N1CCc2cc(-c3cc(C(=O)N(C)c4ccc(O)cc4)c4n3CCCC4)c(C(=O)N3Cc4ccccc4C[C@H]3C)cc2C1` [Example 56, 3-[2-(Ethanesulfonyl)-7-[(3R)-3-methyl-1,2,3,4-tetrahydroisoquinoline-2-carbonyl]-1,2,3,4-tetrahydroisoquinolin-6-yl]-N-(4-hydroxyphenyl)-N-methyl-5,6,7,8-tetrahydroindolizine-1-carboxamide]: the IC50 in assay [1] was 59 nM; in assay [2], 3.8 nM.
For the molecule `CCN1CCc2cc(-c3cc(C(=O)N(C)c4ccc(O)cc4)c4n3CCCC4)c(C(=O)N3Cc4ccccc4C[C@H]3C)cc2C1` [Example 57, 3-{2-Ethyl-7-[(3R)-3-methyl-1,2,3,4-tetrahydroisoquinoline-2-carbonyl]-1,2,3,4-tetrahydroisoquinolin-6-yl}-N-(4-hydroxyphenyl)-N-methyl-5,6,7,8-tetrahydroindolizine-1-carboxamide], the IC50 stood at 1250 nM in assay [1] and 65 nM in assay [2].
In the same order, the values of `C[C@@H]1Cc2ccccc2CN1C(=O)c1cc2c(cc1-c1cc(C(=O)N(C)c3ccc(O)cc3)c3n1CCCC3)CCN(C(=O)Oc1ccc(N)cc1)C2` [Example 58, 4-Aminophenyl 6-{1-[(4-hydroxyphenyl)(methyl)carbamoyl]-5,6,7,8-tetrahydroindolizin-3-yl}-7-[(3R)-3-methyl-1,2,3,4-tetrahydroisoquinoline-2-carbonyl]-1,2,3,4-tetrahydroisoquinoline-2-carboxylate] are 3.3 nM and 4.2 nM.
In the same order, the values of `CC(=O)Nc1ccc(OC(=O)N2CCc3cc(-c4cc(C(=O)N(C)c5ccc(O)cc5)c5n4CCCC5)c(C(=O)N4Cc5ccccc5C[C@H]4C)cc3C2)cc1` [Example 59, 4-Acetamidophenyl 6-{1-[(4-hydroxyphenyl)(methyl)carbamoyl]-5,6,7,8-tetrahydroindolizin-3-yl}-7-[(3R)-3-methyl-1,2,3,4-tetrahydroisoquinoline-2-carbonyl]-1,2,3,4-tetrahydroisoquinoline-2-carboxylate] are 6.8 nM and 3.2 nM.
